In data set [1] the test system is HEK293 GFP Parkin cells. Briefly: Immunoblotting of mitochondrial protein degradation after CCCP. Type of data set: cell-based. Here is the method:
(a) HEK293 GFP Parkin cells were treated with varying doses of SR3677 for 2 hours prior to induction of mitophagy with 10 μM CCCP for one hour. The percentage of cells with mitochondrial Parkin increased in a dose-dependent manner. […] Cell lysates were harvested, proteins were separated by SDS-PAGE and immunoblotting was performed with anti-Mfn2 and anti-actin antibodies. (c) Ponceau VDAC1 levels in each sample normalized to Ponceau staining. (d) Mfn2/actin levels in CCCP treated cells. (e) Densitometry analysis was performed to quantify Mfn2 and VDAC1 levels in each sample (n=4 independent experiments).
HEK293 GFP Parkin cells co-treated with 0.5 μM SR3677 or DMSO and 10 μM CCCP for the indicated time (hours). Cell lysates were separated by SDS-PAGE and immunoblotting was performed to assess turnover of IMM/matrix substrates (A) ATP5A, (B) UQCRC2 and (C) COXIV. Densitometry analysis was performed. Protein levels were normalized to Ponceau. Data is expressed as mean±s.e.m (n=6, 7 and 8 for a, b and c, respectively. 4) P-values were determined by paired student's t-test, *P<0.05.
Lysates were harvested using lysis buffer (0.1M Tris HCl, 0.01% SDS, pH 9) with 1× protease inhibitor cocktail (BioShop, PIC002.1). Lysates were then heated at 95° C. for 20 minutes with vortexing performed at 5-minute intervals. The BCA assay (Pierce, 23227) was performed to determine protein concentration, to standardize protein loading across samples to be compared. 12% SDS-PAGE gels were used to run samples to be analyzed for LC3 conversation and for Tom20 and 10% gels were run for all other samples. Transfer of proteins onto PVDF membrane (Immobilon, IPVH00010) was performed at 110V for 80 minutes or at 36V for 8 hours. Membranes were blocked with 5% skim milk in TBST (1×TBS, 0.1% Tween-20 [BioShop, 1M23298]) for 30 minutes prior to incubation in primary antibodies at a dilution of 1:1000 for all antibodies except anti-ROCK2 and anti-LC3, which were used at a dilution of 1:5000. Visualization of proteins was performed using ECL (BioRad, 11705062).
Densitometry was performed by normalizing bands corresponding to the protein of interest to a loading control such as actin using ImageLab 6.0 software (BioRad).

The conditions of data set [2]: in vivo; cited from earlier work.
In data set [3] the target is ROCK2 (Homo sapiens, UniProt O75116). The conditions noted are these: biochemical and cell-based assays, previous studies; cited from earlier work.
Data set [4] relates to heteroplasmic mt:Col^T300l flies. Briefly: Survival and climbing of heteroplasmic mt:CoI T300I flies. Type of data set: in vivo, Drosophila. The protocol:
Finally, SR3677 in an alternate, genetic model of mitochondrial dysfunction was tested. Specifically, flies with a temperature-sensitive, de-stabilizing mutation in cytochrome c oxidase subunit I (mt:Col^T300l) were used. This mutation causes depolarization of the mitochondrial membrane potential and increased mitochondrial reactive oxygen species^44, manifesting in systemic consequences such as impaired climbing and survival. Flies with this mutation in 100% of their mitochondrial genomes, or homoplasmic flies, only survive 4 days post-eclosion. In order to extend our therapeutic window, SR3677 in heteroplasmic flies which contain this temperature-sensitive mutation in approximately 90% of their mtDNA instead^47 was tested. These flies retain the same phenotypes as homoplasmic flies, including reduced survival and climbing ability although to a less severe extent (FIG. 7).
Immediately following eclosion, male heteroplasmic mt:Col^T300l flies were transferred to vials containing either water, 1 or 2 mM SR3677. Newly eclosed Canton(S) male flies were placed into fresh vials and referenced as a control for these experiments and flies were raised at non-permissive 29° C. for these experiments. […]

In data set [5] the test system is HEK293 GFP Parkin cells. The experiment in a line: Parkin recruitment assay. Type of data set: cell-based. Here is the method:
HEK293 GFP Parkin cells were seeded into 12-well plates containing coverslips. Cells were treated with small molecules for 2 hours prior to mitophagy induction with 10 μM CCCP, unless indicated otherwise. Following fixation with 4% PFA, immunostaining was carried out using anti-ATP5A primary antibody and anti-mouse Alex Fluor 568.
To measure the percentage of cells with Parkin localized to mitochondria a 2 step process was employed: (1) whole cell segmentation based on GFP Parkin using CellProfiler software and (2) classification into Parkin distribution subpopulation using CellProfiler Analyst. The percentage of cells with Parkin localized to mitochondria was determined in each image. Images were taken at 20× magnification for this experiment, resulting in the classification of at least 300 cells in each treatment group per trial.

Setting [6] is: 0.5 μM co-treated with 10 μM CCCP.

The EC50 is the concentration at which the effect is half-maximal.

Where only a bound is given, the exact number is not on record here.

Chain of ROCK2 (O75116 whole entry): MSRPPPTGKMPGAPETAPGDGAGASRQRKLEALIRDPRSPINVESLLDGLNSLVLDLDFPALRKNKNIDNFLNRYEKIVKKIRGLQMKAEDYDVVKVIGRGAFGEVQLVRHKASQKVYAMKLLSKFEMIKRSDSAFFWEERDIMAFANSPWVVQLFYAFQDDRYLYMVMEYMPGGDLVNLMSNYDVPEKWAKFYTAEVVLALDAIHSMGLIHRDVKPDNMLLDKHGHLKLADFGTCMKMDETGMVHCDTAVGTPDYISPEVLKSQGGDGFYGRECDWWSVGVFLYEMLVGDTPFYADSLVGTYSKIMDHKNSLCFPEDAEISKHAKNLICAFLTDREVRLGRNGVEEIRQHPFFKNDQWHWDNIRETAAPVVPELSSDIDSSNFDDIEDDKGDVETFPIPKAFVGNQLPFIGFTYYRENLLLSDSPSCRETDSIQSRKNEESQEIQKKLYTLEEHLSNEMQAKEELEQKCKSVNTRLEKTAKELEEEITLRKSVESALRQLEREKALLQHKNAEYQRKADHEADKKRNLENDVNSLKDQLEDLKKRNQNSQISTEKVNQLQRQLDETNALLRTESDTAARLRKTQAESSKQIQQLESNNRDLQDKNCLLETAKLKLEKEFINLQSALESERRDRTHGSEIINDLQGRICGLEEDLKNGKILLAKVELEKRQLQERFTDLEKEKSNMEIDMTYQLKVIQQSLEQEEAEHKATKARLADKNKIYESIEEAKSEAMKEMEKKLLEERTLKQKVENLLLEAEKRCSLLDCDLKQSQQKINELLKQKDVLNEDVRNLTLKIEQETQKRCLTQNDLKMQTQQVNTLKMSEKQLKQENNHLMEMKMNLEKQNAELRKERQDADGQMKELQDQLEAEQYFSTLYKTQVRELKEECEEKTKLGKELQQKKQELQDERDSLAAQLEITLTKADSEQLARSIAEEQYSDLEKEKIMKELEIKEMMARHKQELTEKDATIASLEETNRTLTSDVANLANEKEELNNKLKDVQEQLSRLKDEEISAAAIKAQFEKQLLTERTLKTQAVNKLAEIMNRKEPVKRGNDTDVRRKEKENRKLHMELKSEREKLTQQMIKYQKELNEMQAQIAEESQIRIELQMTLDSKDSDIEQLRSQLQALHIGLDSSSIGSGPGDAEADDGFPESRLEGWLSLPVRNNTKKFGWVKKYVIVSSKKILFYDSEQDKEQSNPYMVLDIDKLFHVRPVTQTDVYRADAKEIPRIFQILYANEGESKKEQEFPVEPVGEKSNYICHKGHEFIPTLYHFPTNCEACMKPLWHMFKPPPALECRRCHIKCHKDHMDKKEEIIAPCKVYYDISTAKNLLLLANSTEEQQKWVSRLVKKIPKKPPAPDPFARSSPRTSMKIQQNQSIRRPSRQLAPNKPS

Take `CN(C)CCOc1cc(-c2cn[nH]c2)ccc1NC(=O)[C@@H]1COc2ccccc2O1` [SR3677]: in data set [1] (setting [6]), the “degradation of ATP5A” value was “increased the degradation”, the “degradation of COXIV” value is recorded as “increased the degradation” and the “degradation of UQCRC2” value was “enhanced”. The “fold lower concentration than Y39983 for comparable Mfn2 degradation” value in data set [1] (0.5 μM vs 10 μM) stood at 20 fold. For the same compound, the “turnover of VDAC1” value in data set [1] (0.5 μM, 10 μM CCCP) was “increased the turnover”. The “concentration administered to enhance Mfn2 degradation” value in data set [1] (10 μM CCCP) came to 0.5 µM. Moreover, the “Mfn2 degradation following CCCP” value in data set [1] (2 h pre-treatment, 10 μM CCCP, Y39983 10 μM, SR3677 0.5 μM) is “Increased degradation of Mfn2”. Moreover, the bioavailability result in data set [2] was “poor bioavailability”. In data set [3], the ROCK2 inhibition entry was “selectively inhibits ROCK2”. Besides, the survival entry in data set [4] (1 mM and 2 mM in fly food, 29° C.) is reported as “equally improved”. In addition, the climbing ability entry in data set [4] (2 mM in fly food, 7 days) is listed as “improved”. For the same compound, the “Parkin recruitment to damaged mitochondria” value in data set [5] (0.5 μM, 17 hour and 2 hour pre-incubation, CCCP) is recorded as “increased Parkin recruitment to damaged mitochondria”. Besides, the EC50 in data set [5] (Homo sapiens, HEK293, 2 h pre-treatment, then 10 μM CCCP 1 h, read-out: EC50, percentage of cells with mitochondrial Parkin) stood at 57 nM. The “Parkin distribution in the absence of CCCP” value in data set [5] (compound alone) is “diffuse”. For the same compound, the “concentration at which the maximal effect on Parkin recruitment was achieved” value in data set [5] (dose series, CCCP) was no more than 0.5 µM.

The values are drawn from patent US20220074923A1, “METHODS OF IDENTIFYING PARKIN-MEDIATED MITOPHAGY ACTIVATING AGENTS” (THE GOVERNING COUNCIL OF THE UNIVERSITY OF TORONTO, priority 2018, published 2022).
